Experimental data reported in PMC9332470, “Production and Selection of Antibody–Antigen Pairs for the Development of Immunoenzyme Assay and Lateral Flow Immunoassay Methods for Carbofuran and Its Analogues” (Biosensors, 2022).
Values after ≈ are worked out from the molar mass of the structure shown.

How the values were obtained:
mAb 13C8 [1] = assay: indirect competitive ELISA (icELISA) with mAb 13C8; type: binding, BALB/c mice; conditions: for IC50 (ELISA): optimized ELISA, mAb 13C8 0.03 μg/mL, coating antigen 0.1 μg/mL, given as MDA-BSA and MDA-OVA, unit from text
Protocol: (§1) Microplates were coated with coating antigens. Different concentrations of the standard (50 µL) and the mAb (50 µL) were added to each well, and the plates were incubated for 20 min at 37 °C. The plates were washed with PBS (0.01 M, containing 0.05% (v/v) Triton X-100), 100 μL of goat anti-mouse IgG-HRP conjugate solution was added to each well, and the plates were incubated for 20 min at 37 °C. After the plates were washed with PBS (0.01 M, containing 0.05% Triton X-100, v/v), 100 µL of TMB single-component substrate solution was added to each well, followed by incubation at 37 °C for 10 min. Finally, the reaction was terminated, and the absorbance at 450 nm was measured by a microplate reader.
(§2) Taking the logarithm of the carbofuran concentration as the abscissa and (B/B0)% as the ordinate, the standard curves for ELISA and QD-LFIA were obtained based on the Morgan–Mercer–Flodin (MMF) model, which were fitted by CurveExpert 1.4.0 software (https://www.curveexpert.net, accessed on 15 July 2022). For the ELISA method, B and B0 are the absorbance of the sample well and blank well, respectively. For the QD-LFIA method, B and B0 are the T/C (fluorescence intensity of the test line/fluorescence intensity of the control line) of the sample and blank control, respectively.
(§3) The inhibition ratio (I%) was calculated as (B0-B)/B0 × 100%. IC50 is the concentration of the carbofuran at an I% of 50%, and the limit of detection (LOD) was determined as the concentration showing 10% of inhibition.
(§4) The cross-reactivities (CRs) of benfuracarb, carbosulfan, 3-hydroxy-carbofuran, metolcarb, carbaryl, isoprocarb and aldicarb with carbofuran were assessed by ELISA and QD-LFIA. CR was calculated as CR (%) = [IC50 (carbofuran)/IC50 (analogues)] × 100%.
The microplate was coated with the coating antigens DDB-BSA (1 µg/mL), DDB-OVA (0.5 µg/mL), MDA-BSA (0.2 µg/mL) and MDA-OVA (0.1 µg/mL), and the concentration of mAb 13C8 was 0.03 µg/mL. Carbofuran standards (0, 0.05, 0.15, 0.45, 1.35 and 4.05 ng/mL) were detected to obtain a standard curve, and the IC50 was calculated. […] In the icELISA used in this study, free antigen (carbofuran) in solution competed with the coating antigen on the microplate for antibody 13C8; therefore, the IC50 value was negatively correlated with the antibody-binding ability of free antigen competing with coating antigens.
The ELISA method was developed with the antibody 13C8–antigen MDA-BSA pair. Under the optimized coating antigen concentration (0.1 μg/mL), HRP-conjugated goat anti-mouse IgG concentration (1 μg/mL), antibody concentration (0.03 μg/mL) and working buffer parameters (5 mM PBS at pH 7.4), a standard curve was obtained with the concentration of carbofuran on the abscissa and the inhibition ratio (B/B0) on the ordinate.

mAb 13C8 [2] = assay: quantum dot-based LFIA (QD-LFIA) with mAb 13C8; type: binding, BALB/c mice; conditions: for IC50 (QD-LFIA): optimized QD-LFIA, mAb 13C8-QD, T line antigen 30 μg/mL, given as MDA-BSA and MDA-OVA
Protocol: One milliliter of QDs was added to 9 mL of MES (0.054 M at pH 6.0) and centrifuged at 10,956× g for 20 min. Then, the precipitate was resuspended in 10 mL of MES (0.05 M at pH 6.0). After dispersion by ultrasonication for 2 min, EDC (20 mg) and NHS (20 mg) were added, and the reaction mixture was incubated for 30 min, followed by centrifugation at 10,956× g for 20 min. The precipitate was resuspended in 10 mL of MES (0.05 M at pH 6.0). Then, 1 mg of the mAb dissolved in 10 mL MES (0.027 M at pH 8.0) was added to the QD mixture and shaken at 25 °C and 180 rpm for 90 min. After the reaction, 5 mL of MES (0.054 M at pH 6.0 containing 1.6% BSA, w/v) was added, and the mixture was shaken at 25 °C and 180 rpm for 40 min, followed by centrifugation at 10,956× g for 20 min. The precipitate was resuspended in 10 mL of PB (0.01 M at pH 6.0, containing 5% casein, 1% glucose, 1.5% alanine and 0.05% NaN3, w/v) and dispersed by ultrasonication for 2 min.
The conjugate pad (6 mm × 300 mm) was pretreated with PBS (containing 0.5% Triton X-100, 0.5% alanine and 0.05% NaN3, w/v). Then, 1 mL of the mAb–QD conjugate was sprayed onto the pretreated conjugate pad at a flow rate of 10 μL/cm, and the pad was dried at 37 °C for 2 h. Other applied protocols were similar to those mentioned above.
as §2, §3, §4
Then, to prepare QD-LFIA test strips, DDB-BSA (40 μg/mL), DDB-OVA (50 μg/mL), MDA-BSA (35 μg/mL) and MDA-OVA (30 μg/mL) were dispensed onto the NC membrane, and antibody 13C8 was conjugated to the QDs. Carbofuran standards (0, 0.05, 0.15, 0.45, 1.35 and 4.05 ng/mL) were detected to obtain a standard curve, and the IC50 was calculated. […] In LFIA, carbofuran in solution competed with the coating antigen on the NC membrane for antibody 13C8 conjugated to the QDs.
A standard curve was developed with the inhibition ratio (B/B0) versus the logarithm of the concentration of carbofuran.

[3] = system: broad-specificity mAb with the immunogen BFNB-BSA; conditions: cited from earlier work
mAb 13C8 [4] = assay: ELISA reactivity of hybridoma supernatant, cell line 13C8; type: binding, BALB/c mice; conditions: cell line 13C8 supernatant, 50 ng/mL pesticide
Protocol: (§5) The desired antibodies with the highest affinity were screened by icELISA with carbofuran as a competitive compound, and hybridoma cells were cloned by the limited dilution method. Then, the selected hybridoma cells were injected into mice for ascites production. Finally, the mAbs were purified by (NH4)2SO4 with saturation of 50% and further purified by an SPA column.
as §1, §3
(§6) Then, the reactivity of the supernatant of the six cell lines to 50 ng/mL carbofuran, benfuracarb and carbosulfan was assessed by ELISA, and the results are shown in Table 1. […] Because 13C8 had the highest reactivity with carbofuran, benfuracarb and carbosulfan among the six cell lines, it was injected into mice for ascites production, and the mAbs were purified by a protein A column for further experiments.

mAb 6D6 = assay: ELISA reactivity of hybridoma supernatant, cell line 6D6; type: binding, BALB/c mice; conditions: cell line 6D6 supernatant, 50 ng/mL pesticide
Protocol: as §5, §1, §3, §6

mAb 12D6 = assay: ELISA reactivity of hybridoma supernatant, cell line 12D6; type: binding, BALB/c mice; conditions: cell line 12D6 supernatant, 50 ng/mL pesticide
Protocol: as §5, §1, §3, §6

mAb 18G3 = assay: ELISA reactivity of hybridoma supernatant, cell line 18G3; type: binding, BALB/c mice; conditions: cell line 18G3 supernatant, 50 ng/mL pesticide
Protocol: as §5, §1, §3, §6

mAb 12H5 = assay: ELISA reactivity of hybridoma supernatant, cell line 12H5; type: binding, BALB/c mice; conditions: cell line 12H5 supernatant, 50 ng/mL pesticide
Protocol: as §5, §1, §3, §6

mAb 7F9 = assay: ELISA reactivity of hybridoma supernatant, cell line 7F9; type: binding, BALB/c mice; conditions: cell line 7F9 supernatant, 50 ng/mL pesticide
Protocol: as §5, §1, §3, §6

[5] = system: mAb with the immunogen 3-succinyl-carbofuran-KLH; conditions: cited from earlier work

## CNC(=O)Oc1cccc(C)c1 [metolcarb]
mAb 13C8 [1]
  IC50 (ELISA): >0.02 µg/mL
mAb 13C8 [2]
  IC50 (QD-LFIA): >0.1 µg/mL

## CNC(=O)Oc1cccc2ccccc12 [carbaryl]
mAb 13C8 [1]
  IC50 (ELISA): >0.02 µg/mL
mAb 13C8 [2]
  IC50 (QD-LFIA): >0.1 µg/mL
[3]
  CR(%) (ic-ELISA): 8.5%
  IC50 (ic-ELISA): 0.10559 µg/mL (≈ 0.525 µM)

## CNC(=O)Oc1ccccc1C(C)C [isoprocarb]
mAb 13C8 [1]; CR = IC50(carbofuran)/IC50(analogue) x 100%, optimized ELISA with mAb 13C8
  CR (%) (ELISA): <1%
mAb 13C8 [1]
  IC50 (ELISA): >0.02 µg/mL
mAb 13C8 [2]; CR = IC50(carbofuran)/IC50(analogue) x 100%, QD-LFIA with mAb 13C8
  CR (%) (QD-LFIA): <1%
mAb 13C8 [2]
  IC50 (QD-LFIA): >0.1 µg/mL
[3]
  CR(%) (ic-ELISA): 50.7%
  IC50 (ic-ELISA): 0.01768 µg/mL (≈ 0.0915 µM)

## CNC(=O)Oc1ccccc1OC(C)C [propoxur]
[3]
  CR(%) (ic-ELISA): 25.8%
  IC50 (ic-ELISA): 0.03475 µg/mL (≈ 0.166 µM)

## CCCCN(CCCC)SN(C)C(=O)Oc1cccc2c1OC(C)(C)C2 [carbosulfan]
mAb 13C8 [1]
  IC50 (ELISA): 0.00024 ± 4e-05 µg/mL (≈ 0.000631 µM)
mAb 13C8 [2]
  IC50 (QD-LFIA): 0.00084 ± 9e-05 µg/mL (≈ 0.00221 µM)
mAb 13C8 [4]
  Reactivity of mAb (I%): 90%
mAb 6D6
  Reactivity of mAb (I%): 61%
mAb 12D6
  Reactivity of mAb (I%): 46%
mAb 18G3
  Reactivity of mAb (I%): 71%
mAb 12H5
  Reactivity of mAb (I%): 67%
mAb 7F9
  Reactivity of mAb (I%): 65%
[3]
  CR(%) (ic-ELISA): 7.7%
  IC50 (ic-ELISA): 0.1158 µg/mL (≈ 0.304 µM)

## CNC(=O)O/N=C/C(C)(C)SC [aldicarb]
mAb 13C8 [1]
  IC50 (ELISA): >0.02 µg/mL
mAb 13C8 [2]
  IC50 (QD-LFIA): >0.1 µg/mL

## CCOC(=O)CCN(SN(C)C(=O)Oc1cccc2c1OC(C)(C)C2)C(C)C [benfuracarb]
mAb 13C8 [1]
  IC50 (ELISA): 0.00023 ± 3e-05 µg/mL (≈ 0.00056 µM)
mAb 13C8 [2]
  IC50 (QD-LFIA): 0.00081 ± 7e-05 µg/mL (≈ 0.00197 µM)
mAb 13C8 [4]
  Reactivity of mAb (I%): 91%
mAb 6D6
  Reactivity of mAb (I%): 53%
mAb 12D6
  Reactivity of mAb (I%): 55%
mAb 18G3
  Reactivity of mAb (I%): 76%
mAb 12H5
  Reactivity of mAb (I%): 70%
mAb 7F9
  Reactivity of mAb (I%): 68%

## CNC(=O)Oc1cccc2c1OC(C)(C)C2O (centres unmarked) [3-hydroxy-carbofuran]
mAb 13C8 [1]
  IC50 (ELISA): 0.00025 ± 5e-05 µg/mL (≈ 0.00105 µM)
mAb 13C8 [2]
  IC50 (QD-LFIA): 0.00087 ± 6e-05 µg/mL (≈ 0.00367 µM)
[5]
  CR(%) (ic-ELISA): 110.1%
  IC50 (ic-ELISA): 0.00069 ± 8e-05 µg/mL (≈ 0.00291 µM)
